Among the data in article PMC5414857 (Toxicological Sciences, 2017) are IC50 values, retold here.

The test deals with bile salt export pump (BSEP) (Homo sapiens, UniProt O95342). In kind it is biochemical.
Chain of bile salt export pump (BSEP) (O95342 whole entry): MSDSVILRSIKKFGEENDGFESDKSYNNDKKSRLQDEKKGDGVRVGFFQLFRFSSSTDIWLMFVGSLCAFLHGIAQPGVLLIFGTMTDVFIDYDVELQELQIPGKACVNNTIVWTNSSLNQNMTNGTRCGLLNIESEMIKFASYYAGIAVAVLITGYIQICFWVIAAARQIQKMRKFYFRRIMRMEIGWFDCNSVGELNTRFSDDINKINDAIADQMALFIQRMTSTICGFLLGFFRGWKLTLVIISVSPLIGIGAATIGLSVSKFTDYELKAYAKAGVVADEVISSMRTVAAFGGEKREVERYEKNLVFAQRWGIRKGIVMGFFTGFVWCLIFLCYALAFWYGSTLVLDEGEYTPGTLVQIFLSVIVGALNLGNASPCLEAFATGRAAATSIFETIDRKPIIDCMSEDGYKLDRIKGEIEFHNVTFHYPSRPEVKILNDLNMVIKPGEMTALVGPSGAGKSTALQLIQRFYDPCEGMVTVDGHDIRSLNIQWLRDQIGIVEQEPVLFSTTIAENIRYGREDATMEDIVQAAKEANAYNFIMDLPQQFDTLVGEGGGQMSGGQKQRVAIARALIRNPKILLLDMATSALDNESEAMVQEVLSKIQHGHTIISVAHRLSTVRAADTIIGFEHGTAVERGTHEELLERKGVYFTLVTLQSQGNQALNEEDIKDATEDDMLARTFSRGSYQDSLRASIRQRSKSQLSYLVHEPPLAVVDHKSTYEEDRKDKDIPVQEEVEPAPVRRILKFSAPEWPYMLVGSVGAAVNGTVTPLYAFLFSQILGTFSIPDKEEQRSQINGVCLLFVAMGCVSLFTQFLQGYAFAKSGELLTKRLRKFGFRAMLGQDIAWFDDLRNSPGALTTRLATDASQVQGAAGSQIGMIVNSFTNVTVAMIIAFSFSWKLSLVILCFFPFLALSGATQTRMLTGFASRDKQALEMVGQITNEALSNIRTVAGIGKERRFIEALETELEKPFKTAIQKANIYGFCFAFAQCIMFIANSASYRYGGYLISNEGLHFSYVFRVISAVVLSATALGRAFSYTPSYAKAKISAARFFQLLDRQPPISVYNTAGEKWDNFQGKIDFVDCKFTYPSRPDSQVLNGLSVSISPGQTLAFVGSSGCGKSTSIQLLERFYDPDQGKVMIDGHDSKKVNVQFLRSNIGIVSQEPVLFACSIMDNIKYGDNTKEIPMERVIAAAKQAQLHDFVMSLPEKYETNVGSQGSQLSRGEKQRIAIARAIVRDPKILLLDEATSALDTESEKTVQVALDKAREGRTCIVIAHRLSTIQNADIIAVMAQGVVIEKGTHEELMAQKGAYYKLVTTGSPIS

As usually defined, the IC50 is the concentration that gives 50% inhibition. Take `Cc1cc(OCCCS(C)(=O)=O)cc(C)c1-c1cccc(COc2ccc3c(c2)OC[C@H]3CC(=O)O)c1` [TAK-875]: the 50% inhibitory concentration (IC50) is 14.3 µM.
